Values of other authors in US10729636B2, “Compositions comprising peptide [sequence]” (NURITAS LIMITED, priority 2016, dated 2020).
Read-outs that look alike come from different tables or passages of the source.

How the values were obtained:
lipoproteins = settings: binding to lipoproteins; cited from earlier work
[1] = cited from earlier work
[2] = humans who took more vitamin E on a regular basis vs those who took less; study on nurses; cited from earlier work

Row | Compound | half-life ([1]; in humans) | half-life ([1]; in words) | other results
1 | C[C@@H](O)[C@@H]1NC(=O)[C@H](CCCCN)NC(=O)[C@@H](Cc2c[nH]c3ccccc23)NC(=O)[C@H](Cc2ccccc2)NC(=O)[C@@H](NC(=O)[C@H](N)Cc2ccccc2)CSSC[C@@H](C(=O)N[C@H](CO)[C@@H](C)O)NC1=O [octreotide] | about 100 min | – | fraction unbound (lipoproteins): 0.65
2 | CCNC(=O)[C@@H]1CCCN1C(=O)[C@H](CCCNC(=N)N)NC(=O)[C@H](CC(C)C)NC(=O)[C@@H](COC(C)(C)C)NC(=O)[C@H](Cc1ccc(O)cc1)NC(=O)[C@H](CO)NC(=O)[C@H](Cc1c[nH]c2ccccc12)NC(=O)[C@H](Cc1cnc[nH]1)NC(=O)[C@@H]1CCC(=O)N1 [buserelin] | – | much longer | –
3 | NC(=O)CC[C@@H]1NC(=O)[C@H](Cc2ccccc2)NC(=O)[C@H](Cc2ccc(O)cc2)NC(=O)[C@@H](N)CSSC[C@@H](C(=O)N2CCC[C@H]2C(=O)N[C@@H](CCCN=C(N)N)C(=O)NCC(N)=O)NC(=O)[C@H](CC(N)=O)NC1=O [vasopressin] | 10 to 35 min | – | –
4 | gonadotropin-releasing hormone | – | very short | –
5 | vitamin E | – | – | lower incidence of heart disease [2]: 41%
